Measurements from patent US7053070B2, “Pyrido[2,3-d]pyrimidine-2,7-diamine kinase inhibitors” (Warner-Lambert Company, priority 2000, dated 2006).
Counter-ions that a name gives are not always drawn.

Tests used:
cdk2/cyclinE = cdk2/cyclinE (Homo sapiens, UniProt P24941); assay: Cyclin dependent kinase 2 assay (cdk2/cyclinE), 32P incorporation, filter plate; type: biochemical; settings: retinoblastoma substrate, 12 mM ATP, 25° C., 15 minutes; read-out: Inhibition of Cdks: IC50 Cdk2/E
Protocol: (§1) Cyclin Dependent Kinase 1 and 2 Assays (cdk1/cyclinB, cdk2/cyclinA, cdk2/cyclinE)
(§2) Enzyme assays for IC50 determinations and kinetic evaluation are performed in a 96-well filter plate (Millipore MADVN6550) in a total volume of 0.1 mL of 20 mM TRIS (tris[hydroxymethyl]aminomethane), at pH 7.4, 50 mM NaCl, 1 mM dithiothreitol, 10 mM MgCl2, […] containing 0.25 μCi of [^32P]ATP, 20 ng of enzyme (either cdk1/B, cdk2/A, or cdk2E), 1 μg retinoblastoma and appropriate dilutions of the particular invention compound. All components except the ATP are added to the wells, and the plate is placed on a plate mixer for 2 minutes. The reaction is begun by addition of [^32P]ATP, and the plate is incubated at 25° C. for 15 minutes. The reaction is terminated by addition of 0.1 mL of 20% TCA. The plate is kept at 4° C. for at least 1 hour to allow the substrate to precipitate. The wells are then washed 5 times with 0.2 mL of 10% TCA and ^32P incorporation determined with a beta plate counter (Wallac Inc., Gaithersburg, Md.).

cdk4/cyclinD = cdk4/cyclinD (Homo sapiens, UniProt P11802); assay: Cyclin Dependent Kinase 4 (cdk-4) Assay, 32P incorporation, filter plate; type: biochemical; settings: retinoblastoma substrate, 25 μM ATP, 25° C., 15 minutes; read-out: Inhibition of Cdks: IC50 Cdk4D
Protocol: Cyclin Dependent Kinase 4 (cdk-4) Assay
Enzyme assays for IC50 determinations and kinetic evaluation are performed in 96-well filter plates (Millipore MADVN6550). The total volume is 0.1 mL containing a final concentration of 20 mM TRIS (tris[hydroxymethyl]aminomethane), at pH 7.4, 50 mM NaCl, 1 mM dithiothreitol, 10 mM MgCl2, 25 μM ATP containing 0.25 μCi of [^32P]ATP, 20 ng of cdk4, 1 μg of retinoblastoma, and appropriate dilutions of a compound of the present invention. All components except the ATP are added to the wells, and the plate is placed on a plate mixer for 2 minutes. The reaction is started by adding [^32P]ATP, and the plate is incubated at 25° C. for 15 minutes. The reaction is terminated by addition of 0.1 mL of 20% trichloroacetic acid (TCA). The plate is kept at 4° C. for at least 1 hour to allow the substrate to precipitate. The wells are then washed 5 times with 0.2 mL of 10% TCA and ^32P incorporation is determined with a beta plate counter (Wallac Inc., Gaithersburg, Md.).

cdk2/cyclinA = cdk2/cyclinA (Homo sapiens, UniProt P24941); assay: Cyclin dependent kinase 2 assay (cdk2/cyclinA), 32P incorporation, filter plate; type: biochemical; settings: retinoblastoma substrate, 12 mM ATP, 25° C., 15 minutes; read-out: Inhibition of Cdks: IC50 Cdk2/A
Protocol: as §1, §2

cdk1/cyclinB = cdk1/cyclinB (Homo sapiens, UniProt P06493); assay: Cyclin dependent kinase 1 assay (cdk1/cyclinB), 32P incorporation, filter plate; type: biochemical; settings: retinoblastoma substrate, 12 mM ATP, 25° C., 15 minutes; read-out: Inhibition of Cdks: IC50 Cdk1/B
Protocol: as §1, §2

Chain of cdk1/cyclinB (P06493 whole entry, species assumed): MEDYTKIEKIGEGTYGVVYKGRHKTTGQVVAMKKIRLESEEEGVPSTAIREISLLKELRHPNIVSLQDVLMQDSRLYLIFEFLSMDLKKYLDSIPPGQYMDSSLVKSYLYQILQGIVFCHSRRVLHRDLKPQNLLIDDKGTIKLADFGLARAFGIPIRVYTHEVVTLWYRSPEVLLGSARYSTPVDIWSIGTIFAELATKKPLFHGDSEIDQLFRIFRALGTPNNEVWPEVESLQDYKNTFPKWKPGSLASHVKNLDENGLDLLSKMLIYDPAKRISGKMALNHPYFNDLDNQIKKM
Chain of cdk1/cyclinB (P14635 whole entry partner, species assumed): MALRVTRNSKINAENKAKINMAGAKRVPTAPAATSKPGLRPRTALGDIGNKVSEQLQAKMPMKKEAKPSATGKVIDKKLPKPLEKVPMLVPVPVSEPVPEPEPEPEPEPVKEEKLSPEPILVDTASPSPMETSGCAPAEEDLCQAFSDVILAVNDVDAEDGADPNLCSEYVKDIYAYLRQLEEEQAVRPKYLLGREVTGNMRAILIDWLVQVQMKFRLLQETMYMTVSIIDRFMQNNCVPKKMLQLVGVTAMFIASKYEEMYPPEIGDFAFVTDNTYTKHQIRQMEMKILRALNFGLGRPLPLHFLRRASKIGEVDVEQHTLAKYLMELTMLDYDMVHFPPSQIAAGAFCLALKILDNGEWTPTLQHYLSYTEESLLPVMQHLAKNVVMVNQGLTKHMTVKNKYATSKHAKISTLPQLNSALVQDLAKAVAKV
Chain of cdk4/cyclinD (P11802 whole entry, species assumed): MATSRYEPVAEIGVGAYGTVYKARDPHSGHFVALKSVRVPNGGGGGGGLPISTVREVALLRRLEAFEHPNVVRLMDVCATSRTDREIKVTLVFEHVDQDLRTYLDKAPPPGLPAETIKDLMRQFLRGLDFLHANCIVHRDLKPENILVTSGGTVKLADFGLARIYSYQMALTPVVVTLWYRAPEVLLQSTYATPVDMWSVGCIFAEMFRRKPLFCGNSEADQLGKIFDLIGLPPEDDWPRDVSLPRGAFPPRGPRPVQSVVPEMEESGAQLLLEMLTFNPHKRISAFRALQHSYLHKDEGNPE
Chain of cdk4/cyclinD (P24385 whole entry partner, species assumed): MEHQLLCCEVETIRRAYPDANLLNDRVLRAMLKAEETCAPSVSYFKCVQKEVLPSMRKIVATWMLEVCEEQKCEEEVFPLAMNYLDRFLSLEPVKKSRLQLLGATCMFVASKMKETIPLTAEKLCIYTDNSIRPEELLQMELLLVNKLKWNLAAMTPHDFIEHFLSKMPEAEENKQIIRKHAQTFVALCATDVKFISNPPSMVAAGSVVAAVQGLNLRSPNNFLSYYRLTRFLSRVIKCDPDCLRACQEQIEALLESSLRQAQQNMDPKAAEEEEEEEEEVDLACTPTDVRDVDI

melting point	IC50 (cdk2/cyclinE) [nM]	IC50 (cdk4/cyclinD) [nM]	IC50 (cdk2/cyclinA) [nM]	IC50 (cdk1/cyclinB) [nM]	SMILES
215 °C (dec.)					CC(C)(C)NC(=O)Nc1ccc2cnc(Nc3ccc(N4CCNCC4)cc3)nc2n1 (as salt: salt) [Compound 1, 1-tert-Butyl-3-[2-(4-piperazin-1-yl-phenylamino)-pyrido[2,3-d]pyrimidin-7-yl]-urea]
200 °C (dec.)					O=C(Nc1ccc2cnc(Nc3ccc(N4CCNCC4)cc3)nc2n1)NC1CCCCC1 (as salt: salt) [Compound 9, 1-Cyclohexyl-3-[2-(4-piperazin-1-yl-phenylamino)-pyrido[2,3-d]pyrimidin-7-yl]-urea]
190 °C (dec.)					CC(C)NC(=O)Nc1ccc2cnc(Nc3ccc(N4CCNCC4)cc3)nc2n1 (as salt: salt) [Compound 48, 1-Isopropyl-3-[2-(4-piperazin-1-yl-phenylamino)-pyrido[2,3-d]pyrimidin-7-yl]-urea]
210 to 213 °C (dec.)					O=C(Nc1ccc2cnc(Nc3ccc(N4CCNCC4)cc3)nc2n1)NC1CCCC1 (as salt: salt) [Compound 51, 1-Cyclopentyl-3-[2-(4-piperazin-1-yl-phenylamino)-pyrido[2,3-d]pyrimidin-7-yl]-urea]
198 °C (dec.)					C[C@@H]1CN(c2ccc(Nc3ncc4cc(Br)c(NC(=O)NC5CCCCC5)nc4n3)cc2)C[C@H](C)N1 (as salt: salt) [Compound 95, 1-{6-Bromo-2-[4-(cis-3,5-dimethyl-piperazin-1-yl)-phenylamino]-pyrido[2,3-d]pyrimidin-7-yl}-3-cyclohexyl-urea]
	98	18	113	257	CC(C)NC(=O)Nc1ccc2cnc(Nc3ccc(N4CCNCC4)cc3)nc2n1 [Compound 48, 1-Isopropyl-3-[2-(4-piperazin-1-yl-phenylamino)-pyrido[2,3-d]pyrimidin-7-yl]-urea]
	30	4	24	53	O=C(Nc1ccc2cnc(Nc3ccc(N4CCNCC4)cc3)nc2n1)NC1CCCC1 [Compound 51, 1-Cyclopentyl-3-[2-(4-piperazin-1-yl-phenylamino)-pyrido[2,3-d]pyrimidin-7-yl]-urea]
	> 5000	70	> 5000	> 5000	CC(C)(C)NC(=O)Nc1nc2nc(Nc3ccc(N4CCNCC4)cc3)ncc2cc1Br [Compound 91, 1-[6-Bromo-2-(4-piperazin-1-yl-phenylamino)-pyrido[2,3-d]pyrimidin-7-yl]-3-tert-butyl-urea]
	> 5000	> 5000	> 5000	> 5000	CNC(=O)Nc1nc2nc(Nc3ccc(N4CCNCC4)cc3)ncc2cc1Br [Compound 93, 1-[6-Bromo-2-(4-piperazin-1-yl-phenylamino)-pyrido[2,3-d]pyrimidin-7-yl]-3-methyl-urea]
	> 5000	101			C[C@@H]1CN(c2ccc(Nc3ncc4cc(Br)c(NC(=O)NC(C)(C)C)nc4n3)cc2)C[C@H](C)N1 [Compound 94, 1-{6-Bromo-2-[4-(cis-3,5-dimethyl-piperazin-1-yl)-phenylamino]-pyrido[2,3-d]pyrimidin-7-yl}-3-tert-butyl-urea]
	> 5000	310			C[C@@H]1CN(c2ccc(Nc3ncc4cc(Br)c(NC(=O)NC5CCCCC5)nc4n3)cc2)C[C@H](C)N1 [Compound 95, 1-{6-Bromo-2-[4-(cis-3,5-dimethyl-piperazin-1-yl)-phenylamino]-pyrido[2,3-d]pyrimidin-7-yl}-3-cyclohexyl-urea]
	415	35	153	265	CC1(C)CN(c2ccc(Nc3ncc4cc(F)c(NC(=O)NC5CCCCC5)nc4n3)cc2)CCN1 [Compound 100, 1-Cyclohexyl-3-{2-[4-(3,3-dimethyl-piperazin-1-yl)-phenylamino]-6-fluoro-pyrido[2,3-d]pyrimidin-7-yl}-urea]
	4500	165	3590	3130	C[C@@H]1CN(c2ccc(Nc3ncc4cc(F)c(NC(=O)NC(C)(C)C)nc4n3)cc2)C[C@H](C)N1 [Compound 102, 1-tert-Butyl-3-{2-[4(cis-3,5-dimethyl-piperazin-1-yl)-phenylamino]-6-fluoro-pyrido[2,3-d]pyrimidin-7-yl}-urea]
170 °C (dec.)	440		350		C[C@@H]1CN(c2ccc(Nc3ncc4ccc(N(C)C(=O)NC5CCCCC5)nc4n3)cc2)C[C@H](C)N1 [Compound 106, 3-Cyclohexyl-1-{2-[4-(cis-3,5-dimethyl-piperazin-1-yl)-phenylamino]-pyrido[2,3-d]pyrimidin-7-}-1-methyl-urea]
	1650	19	1950	1730	CCN(C(=O)NC1CCCCC1)c1ccc2cnc(Nc3ccc(N4CCNCC4)cc3)nc2n1 [Compound 107, 3-Cyclohexyl-1-ethyl-1-[2-(4-piperazin-1-yl-phenylamino)-pyrido[2,3-d]pyrimidin-7-yl]-urea]
	3050	67	2030	2420	CCN(C(=O)NC(C)(C)C)c1ccc2cnc(Nc3ccc(N4C[C@@H](C)N[C@@H](C)C4)cc3)nc2n1 [Compound 108, 3-tert-Butyl-1-{2-[4(cis-3,5-dimethyl-piperazin-1-yl)-phenylamino]-pyrido[2,3-d]pyrimidin-7-yl}-1-ethyl-urea]
	> 5000	3000	> 5000	> 5000	CCOC(=O)c1cc2cnc(Nc3ccc(N4CCNCC4)cc3)nc2nc1NC(=O)NC(C)(C)C [Compound 113, 7-(3-tert-Butyl-ureido)-2-(4-piperazin-1-yl-phenylamino)-pyrido[2,3-d]pyrimidine-6-carboxylic acid ethyl ester]
	51	7	22	94	CC1(C)CN(c2ccc(Nc3ncc4ccc(NC(=O)NC5CCCCC5)nc4n3)cc2)CCN1 [Compound 115, 1-Cyclohexyl-3-{2-[4-(3,3-dimethyl-piperazin-1-yl)-phenylamino]-pyrido[2,3-d]pyrimidin-7-yl}-urea]
	3750	313	> 5000	> 5000	Cc1cc2cnc(Nc3ccc(N4C[C@@H](C)N[C@@H](C)C4)cc3)nc2nc1NC(=O)NC1CCCCC1 [Compound 116, 1-Cyclohexyl-3-{2-[4-(cis-3,5-dimethyl-piperazin-1-yl)-phenylamino]-6-methyl-pyrido[2,3-d]pyrimidin-7-yl}-urea]
	3800	79	> 5000	> 5000	Cc1cc2cnc(Nc3ccc(N4CCNCC4)cc3)nc2nc1NC(=O)NC(C)(C)C [Compound 118]
	> 5000	1600	> 5000	> 5000	Cc1cc2cnc(Nc3ccc(N4C[C@@H](C)N[C@@H](C)C4)cc3)nc2nc1NC(=O)NC(C)C [Compound 119, 1-{2-[4-(cis-3,5-Dimethyl-piperazin-1-yl)-phenylamino]-6-methyl-pyrido[2,3-d]pyrimidin-7-yl}-3-isopropyl-urea]
	> 5000	1900	> 5000	> 5000	Cc1cc2cnc(Nc3ccc(N4C[C@@H](C)N[C@@H](C)C4)cc3)nc2nc1NC(=O)NC1CC1 [Compound 120, 1-Cyclopropyl-3-{2-[4-(cis-3,5-dimethyl-piperazin-1-yl)-phenylamino]-6-methyl-pyrido[2,3-d]pyrimidin-7-yl}-urea]
	> 5000	92	> 5000	> 5000	CCc1cc2cnc(Nc3ccc(N4C[C@@H](C)N[C@@H](C)C4)cc3)nc2nc1NC(=O)NC(C)(C)C [Compound 121, 1-tert-Butyl-3-{2-[4-(cis-3,5-dimethyl-piperazin-1-yl)-phenylamino]-6-ethyl-pyrido[2,3-d]pyrimidin-7-yl}-urea]
